The results in this text go back to patent US11168102B1, “Bicyclic heteroaryl compounds and uses thereof” (Revolution Medicines, Inc., priority 2019, dated 2021).

The term IC50 denotes the concentration needed to halve the response being measured.

For one assay, the system named is cellular pERK in PC-9 cells (EGFR Ex19Del). Nature of the assay: Potency assay: pERK (AlphaLISA SureFire Ultra p-ERK1/2) in PC-9 cells. The conditions noted are these: Homo sapiens, PC-9, 1 h, PC-9 cells (EGFR Ex19Del), 1 hour incubation, AlphaLISA SureFire Ultra p-ERK1/2; read-out: SOS1 pERK IC50. Format: cell-based.
For `C[C@@H](Nc1ncnc2c1cc(Sc1ccccc1)c(=O)n2C)c1cccc(C(F)F)c1F` [Example 30, 4-{[(1R)-1-[3-(difluoromethyl)-2-fluorophenyl]ethyl]amino}-8-methyl-6-(phenylsulfanyl)-7H,8H-pyrido[2,3-d]pyrimidin-7-one], the IC50 worked out at 2760 nM.

For the molecule `C[C@@H](Nc1ncnc2c1cc(C1(N)CCOCC1)c(=O)n2C)c1cccc(C(F)F)c1F` [Example 31, 6-(4-aminooxan-4-yl)-4-{[(1R)-1-[3-(difluoromethyl)-2-fluorophenyl]ethyl]amino}-8-methyl-7H,8H-pyrido-[2,3-d]pyrimidin-7-one], the IC50 was 14.5 nM.

`C[C@@H](Nc1ncnc2c1cc(C1(N)CCS(=O)(=O)CC1)c(=O)n2C)c1cccc(C(F)F)c1F` [Example 31-1]: the IC50 was determined as 45.6 nM.

Turning to `CC(=O)NC1(c2cc3c(N[C@H](C)c4cccc(C(F)F)c4F)ncnc3n(C)c2=O)CCS(=O)(=O)CC1` [Example 31-3], the IC50 was 777 nM.

`C[C@@H](Nc1ncnc2c1cc(C1(N)CC3(C1)CS(=O)(=O)C3)c(=O)n2C)c1cccc(C(F)F)c1F` [Example 31-4]: the IC50 was 180 nM.

`C[C@@H](Nc1ncnc2c1cc(C1(N)CS(=O)(=O)C1)c(=O)n2C)c1cccc(C(F)F)c1F` [Example 31-6]: the IC50 is 191 nM.

Regarding `C[C@@H](Nc1ncnc2c1cc(C1(N)CCS(=O)(=O)C1)c(=O)n2C)c1cccc(C(F)F)c1F` (some centres unmarked) [Example 31-7], the IC50 stood at 45.6 nM.

For `COC1(c2cc3c(N[C@H](C)c4cccc(C(F)F)c4F)ncnc3n(C)c2=O)CCS(=O)(=O)CC1` [Example 32, 4-(4-{[(1R)-1-[3-(difluoro-methyl)-2-fluorophenyl]ethyl]amino}-8-methyl-7-oxo-7H,8H-pyrido[2,3-d]pyrimidin-6-yl)-4-methoxy-λ1^6-thiane-1,1-dione], the IC50 came to 58.4 nM.

Consider `COC1(c2cc3c(N[C@H](C)c4cccc(C(F)F)c4F)ncnc3n(C)c2=O)CCN(C(C)=O)CC1` [Example 32-1], for which the IC50 was 124 nM.

On to `CO[C@]1(c2cc3c(N[C@H](C)c4cccc(C(F)F)c4F)ncnc3n(C)c2=O)CCN(C(C)=O)C1` [Example 32-2], for which the IC50 was found to be 10 nM.

On to `COC1(c2cc3c(N[C@H](C)c4cccc(C(F)F)c4F)ncnc3n(C)c2=O)CCC2(CC1)CS(=O)(=O)C2` [Example 32-4], for which the IC50 was 9.29 nM.

As for `COC1(c2cc3c(N[C@H](C)c4cccc(C(F)F)c4F)ncnc3n(C)c2=O)CC2(C1)CS(=O)(=O)C2` [Example 32-5], the IC50 was 35.7 nM.

Regarding `COC1(c2cc3c(N[C@H](C)c4cccc(C(F)F)c4F)ncnc3n(C)c2=O)CCN(S(C)(=O)=O)C1` (some centres unmarked) [Example 32-6], the IC50 came to 39.1 nM.

`COC1(c2cc3c(N[C@H](C)c4cccc(C(F)F)c4F)ncnc3n(C)c2=O)CN(C(C)=O)C1` [Example 32-7]: the IC50 was 71.4 nM.

On to `COC1(c2cc3c(N[C@H](C)c4cccc(C(F)F)c4F)ncnc3n(C)c2=O)CN(C)C1` [Example 32-8], for which the IC50 stood at 186 nM.

With `COC1(c2cc3c(N[C@H](C)c4cccc(C(F)F)c4F)ncnc3n(C)c2=O)CCN(C(C)=O)C1` (some centres unmarked) [Example 32-9], the half-inhibitory concentration (IC50) turned out to be 16.3 nM.

Take `COC1(c2cc3c(N[C@H](C)c4cccc(C(F)F)c4F)ncnc3n(C)c2=O)CN(S(C)(=O)=O)C1` [Example 32-10]: the IC50 is 436 nM.

In the case of `COC1(c2cc3c(N[C@H](C)c4cccc(C(F)F)c4F)ncnc3n(C)c2=O)CCN(C(=O)C2CC2)CC1` [Example 32-11], the IC50 was 34.5 nM.

For `COC1(c2cc3c(N[C@H](C)c4cccc(C(F)F)c4F)ncnc3n(C)c2=O)CCN(C(=O)C2COC2)CC1` [Example 32-12], the IC50 was 28.6 nM.

Consider `COCC(=O)N1CCC(OC)(c2cc3c(N[C@H](C)c4cccc(C(F)F)c4F)ncnc3n(C)c2=O)CC1` [Example 32-13], for which the IC50 was determined as 44 nM.

Regarding `COC1(c2cc3c(N[C@H](C)c4cccc(C(F)F)c4F)ncnc3n(C)c2=O)C[C@H]2C[C@@H]1CN2C(C)=O` (some centres unmarked) [Example 32-14], the IC50 amounted to 1310 nM.

Regarding `COC1(c2cc3c(N[C@H](C)c4cccc(C(F)F)c4F)ncnc3n(C)c2=O)CC2(CN(C(C)=O)C2)C1` [Example 32-15], the IC50 stood at 49.3 nM.

`CO[C@]1(c2cc3c(N[C@H](C)c4cccc(C(F)F)c4F)ncnc3n(C)c2=O)CCN(S(C)(=O)=O)C1` [Example 32-16]: the IC50 worked out at 268 nM.

With `CO[C@@]1(c2cc3c(N[C@H](C)c4cccc(C(F)F)c4F)ncnc3n(C)c2=O)CCN(S(C)(=O)=O)C1` [Example 32-17], the IC50 worked out at 29.9 nM.

On to `COC1(c2cc3c(N[C@H](C)c4cccc(C(F)F)c4F)ncnc3n(C)c2=O)C[C@@H]2C[C@H]1CN2C(C)=O` (some centres unmarked) [Example 32-18], for which the IC50 came out at 947 nM.

On to `CO[C@]1(c2cc3c(N[C@H](C)c4cccc(C(F)F)c4F)ncnc3n(C)c2=O)CCN(C(C)=O)C1` [Example 32-19], for which the IC50 came out at 11.3 nM.

As for `COC1(c2cc3c(N[C@H](C)c4cccc(C(F)F)c4F)ncnc3n(C)c2=O)CC2(CCN(C(C)=O)C2)C1` (some centres unmarked) [Example 32-21], the IC50 came to 393 nM.

For the molecule `COC1(c2cc3c(N[C@H](C)c4cccc(C(F)F)c4F)ncnc3n(C)c2=O)C2CCC1CN(C(C)=O)C2` (some centres unmarked) [Example 32-22], the IC50 is 180 nM.

Consider `CO[C@@]1(c2cc3c(N[C@H](C)c4cccc(C(F)F)c4F)ncnc3n(C)c2=O)CCN(C(C)=O)C1` [Example 32-23], for which the IC50 amounted to 52.7 nM.

For `COC1(c2cc3c(N[C@H](C)c4cccc(C(F)F)c4F)ncnc3n(C)c2=O)CCN(S(C)(=O)=O)CC1` [Example 32-24], the IC50 is 69.7 nM.

For the molecule `COC1(c2cc3c(N[C@H](C)c4cccc(C(F)F)c4F)ncnc3n(C)c2=O)C2CC1CN(C(C)=O)C2` (some centres unmarked) [Example 32-25], the IC50 worked out at 1440 nM.

Regarding `COC1(c2cc3c(N[C@H](C)c4cccc(C(F)F)c4F)nc(C)nc3n(C)c2=O)CC2(CN(C(C)=O)C2)C1` [Example 32-26], the IC50 turned out to be 41.8 nM.

Take `C[C@@H](Nc1ncnc2c1cc(C1(OC3CC3)CCS(=O)(=O)CC1)c(=O)n2C)c1cccc(C(F)F)c1F` [Example 32-27]: the IC50 was found to be 87.9 nM.

With `CO[C@@]1(c2cc3c(N[C@H](C)c4cccc(C(F)F)c4F)ncnc3n(C)c2=O)CCN(C(C)=O)[C@H](C)C1` [Example 32-28], the concentration for half-maximal inhibition (IC50) turned out to be 92.1 nM.

As to `COC1(c2cc3c(N[C@H](C)c4cccc(C(F)F)c4F)ncnc3n(C)c2=O)CCN(C(C)=O)C(C)(C)C1` (some centres unmarked) [Example 32-29], the IC50 stood at 53.7 nM.

Consider `CO[C@@]1(c2cc3c(N[C@H](C)c4cccc(C(F)F)c4F)ncnc3n(C)c2=O)CCN(C(C)=O)[C@@H](C)C1` [Example 32-30], for which the half-maximal inhibitory concentration (IC50) worked out at 236 nM.

In the case of `CO[C@]1(c2cc3c(N[C@H](C)c4cccc(C(F)F)c4F)ncnc3n(C)c2=O)CCN(C(C)=O)[C@@H](C)C1` [Example 32-31], the IC50 came out at 10.1 nM.

For the molecule `COC1(c2cc3c(N[C@H](C)c4cccc(C(F)F)c4F)ncnc3n(C)c2=O)CCCS(=O)(=O)CC1` (some centres unmarked) [Example 32-33], the IC50 amounted to 85.9 nM.

On to `COC1(c2cc3c(N[C@H](C)c4cccc(C(F)F)c4F)ncnc3n(C)c2=O)CCC2CN(C(C)=O)CC21` (some centres unmarked) [Example 32-35], for which the IC50 came to 244 nM.

`COC1(c2cc3c(N[C@H](C)c4cccc(C(F)F)c4F)ncnc3n(C)c2=O)CC2CN(C(C)=O)C2C1` (some centres unmarked) [Example 32-36]: the IC50 amounted to 93.1 nM.

As to `COC1(c2cc3c(N[C@H](C)c4cccc(C(F)F)c4F)ncnc3n(C)c2=O)C[C@@H](C)N(C(C)=O)C1` (some centres unmarked) [Example 32-37], the IC50 is 11.8 nM.

As for `COC1(c2cc3c(N[C@H](C)c4cccc(C(F)F)c4F)ncnc3n(C)c2=O)C[C@H](C)N(C(C)=O)C1` (some centres unmarked) [Example 32-38], the IC50 came to 172 nM.

As to `COC1(c2cc3c(N[C@H](C)c4cccc(C(F)F)c4F)ncnc3n(C)c2=O)CCCN(C(C)=O)CC1` (some centres unmarked) [Example 32-39], the IC50 was 54.2 nM.

Take `CO[C@]1(c2cc3c(N[C@H](C)c4cccc(C(F)F)c4F)ncnc3n(C)c2=O)C[C@H](N(C)C(C)=O)C1` [Example 32-41]: the IC50 is 461 nM.

With `COC1(c2cc3c(N[C@H](C)c4cccc(C(F)F)c4F)ncnc3n(C)c2=O)CCN(C(C)=O)C2(CC2)C1` (some centres unmarked) [Example 32-42], the IC50 is 355 nM.

As for `CC(=O)N1CCC(OC2CC2)(c2cc3c(N[C@H](C)c4cccc(C(F)F)c4F)ncnc3n(C)c2=O)CC1` [Example 32-44], the IC50 was 32.1 nM.

As to `COC1(c2cc3c(N[C@H](C)c4cccc(C(F)F)c4F)ncnc3n(C)c2=O)CCP(C)(=O)CC1` (some centres unmarked) [Example 32-45], the IC50 turned out to be 249 nM.

`CO[C@]1(c2cc3c(N[C@H](C)c4cccc(C(F)F)c4F)ncnc3n(C)c2=O)C[C@@H](C)N(C(C)=O)C1` [Example 32-47]: the IC50 is 77.6 nM.

The same assay, now with this note: Homo sapiens, PC-9, 1 h, read-out: SOS1 pERK IC50.
As for `C[C@@H](Nc1ncnc2c1cc(C1(N)CCC3(CC1)CS(=O)(=O)C3)c(=O)n2C)c1cccc(C(F)F)c1F` [Example 31-5], the IC50 came out at 26.7 nM.

For `COC1(c2cc3c(N[C@H](C)c4cccc(C(F)F)c4F)ncnc3n(C)c2=O)CCN(C)CC1` [Example 32-3], the IC50 stood at 2240 nM.

Still in this assay, the particulars now being: PC-9 cells (EGFR Ex19Del), 1 hour incubation, AlphaLISA SureFire Ultra p-ERK1/2; read-out: SOS1 pERK IC50.
With `C[C@@H](Nc1ncnc2c1cc(C1(F)CCS(=N)(=O)CC1)c(=O)n2C)c1cccc(C(F)F)c1F` (some centres unmarked) [Example 29-15], the IC50 was determined as 42.2 nM.

On to `C[C@@H](Nc1ncnc2c1cc(C1(N)CCP(C)(=O)CC1)c(=O)n2C)c1cccc(C(F)F)c1F` (some centres unmarked) [Example 31-10], for which the IC50 was determined as 51.8 nM.

For the molecule `C[C@@H](Nc1ncnc2c1cc(C1(N)CCP(C)(=O)CC1)c(=O)n2C)c1cccc(C(F)F)c1F` (some centres unmarked) [Example 31-11], the IC50 turned out to be 575 nM.

For `COC1(c2cc3c(N[C@H](C)c4cccc(C(F)F)c4F)ncnc3n(C)c2=O)CCCS(=O)(=O)CC1` (some centres unmarked) [Example 32-34], the IC50 stood at 71.1 nM.

`COC1(c2cc3c(N[C@H](C)c4cccc(C(F)F)c4F)ncnc3n(C)c2=O)CCN(C(C)=O)C2(CC2)C1` (some centres unmarked) [Example 32-43]: the IC50 came to 181 nM.

Consider `COC1(c2cc3c(N[C@H](C)c4cccc(C(F)F)c4F)ncnc3n(C)c2=O)CCP(C)(=O)CC1` (some centres unmarked) [Example 32-46], for which the IC50 is 148 nM.
